Columns and labels:
[1] = tested on: TRPC1 binding to GST-Homer; assay: GST-Homer pull-down of TRPC1 from lysates of treated HEK293 cells; format: cell-based, human; details: HEK293 cells transfected with HA-TRPC1 and FKBP52, GPI-1046 1 nM, 100 nM, 500 nM, 1 μM for 30 min
Experimental: GST pull-down, Co-IP and immunocytochemistry. Protein binding assays were done as previously described (Yuan et al., Cell 114:777-89, 2003). Transfected cells were harvested and lysed using 500 μl of binding buffer (1×PBS buffer containing 1 mM NaVO3, 10 mM NaPyrophosphate, 50 mM NaF [pH 7.4], and 1% Triton X-100). The cell extracts were sonicated, and insoluble material was spun down at 30,000 g for 20 min. For GST pull-down, GST-H3 EVH was expressed in BL21 bacterial cells by growing a 400 ml culture at 37 C until […] was 0.4-0.6. Cells were induced with […] IPTG for an additional hour, harvested, lysed in […] of 1% Triton X-100 in 1×PBS+[…] PMSF, sonicated 3×10 strokes, and spun down at 12,000 g for 5 min. The supernatant was mixed 1:1 with a slurry of GST-agarose beads (Sigma) for 30 min at 4 C. Beads were washed 2 times with 1% Triton X-100 in 1×PBS and 2 times with 1×PBS. 50 μl of 1:1 slurry of GST-H3 EVH beads were used per 100 μl cell extract and rocked for 2 hr at 4° C. For co-IP experiments, 1 μg of purified antibody or 2 μl of crude antiserum was added to 100 μl of cell extract and incubated for 1 hr at 4° C. Then, 1:1 slurry of protein A or G SEPHAROSE 4B beads were added to the antibody-extract mix and incubated for an additional hour at 4° C. […]

[2] = tested on: growth cones of Xenopus spinal neurons; assay: Ca2+ imaging of growth cones of cultured spinal neurons (netrin-1-induced Ca2+ rise); format: cell-based
Experimental: Ca^2+ imaging of cultured spinal neurons. Ca^2+ imaging of growth cones of Xenopus spinal neurons was carried out as previously described (Ming et al., Nature 417:411-8, 2002; and Ming et al., Neuron 19:1225-35, 1997). Specifically, isolated Xenopus spinal neurons were loaded with Fluo-4 AM (2 μM, Molecular Probes) in the culture media without serum for 30 min at room temperature, and rinsed with the media for growth cone turning assay. Ca^2+ imaging was performed using a Zeiss 510 META system equipped with a 20× objective (NA 0.8). Excitation was at 488 nm by argon laser and the emitted fluorescence was collected at […]. Fluorescence and bright-field images were simultaneously acquired at every 30 seconds with a frame scan. The fluorescence intensity of each time point was measured over a fixed rectangular region of interest that covers the entire growth cone and normalized to the average fluorescence intensity that was measured during a 5 min baseline period (prior to netrin-1 application).

[3] = tested on: calcineurin; details: Steiner et al., PNAS 94:2019-24, 1997; cited from earlier work
[4] = tested on: FKBPs; details: Steiner et al., PNAS 94:2019-24, 1997; cited from earlier work
[5] = tested on: commissural interneuron axons in developing Xenopus embryos; assay: Commissural interneuron axon midline guidance in developing spinal cord (3A10 immunostaining); format: in vivo
Experimental: Xenopus embryo injection and cell culture. Blastomere injections of morpholino oligos or mRNAs encoding TRPC1, FKBP52 or their mutant forms into early stages of Xenopus embryos and culturing of spinal neurons from these injected embryos were performed as previously described (Shim et al., Nat Neurosci 8:730-5, 2005). Specifically, fertilized embryos were injected at the one- or two-cell stage, with a mixture of the morpholino (10 ng/embryo) or mRNA (2-3 ng/embryo), and a lineage tracer. The following DNA constructs were subcloned into the pCS2 vector and used for in vitro transcription with the mMESSAGE mMACHINE SP6 kit (Ambion): Myc-FKBP52-WT, Myc-FKBP52-FD67DV, HA-TRPC1-WT, HA-TRPC1-P645L, HA-TRPC1-P645A, GFP-XTRP C1. A morpholino oligo directed against Xenopus DCC (XDCC-MO) was designed with the following sequence: 5′ […] 3′. Injected embryos at stage 22 were used for cultures of spinal neurons as previous described (Shim et al., Nat Neurosci 8:730-5, 2005).
Whole-mount immunocytochemistry and confocal imaging. Embryos at stage 23-28 were fixed and processed for immunocytochemistry as previously described (Shim et al., Nat Neurosci 8:730-5, 2005; and Gomez et al., Nature 397:350-5, 1999). […] Statistical significance was assessed using the Bootstrap test and accepted if p <0.01.

[6] = tested on: axonal growth cones of rat hippocampal neurons; assay: Growth cone turning assay in a MAG gradient; format: cell-based; details: MAG 150 μg/ml in the pipette
Experimental: Primary hippocampal neuronal cultures and transfection. Hippocampal neurons were isolated from postnatal rats (P3-P5) and were cultured on poly-L-lysine coated coverslips as previously described (Song et al., Nature 417:39-44, 2002). These neurons were transfected with the AMAXA transfection system following protocols from the manufacturer. Briefly, hippocampal neurons were isolated and 100 μl of nucleofector solution was added to resuspend the cell pellet. Different expression constructs (1-5 μg), GFP, FKBP52-FD67DV, TRPC1-P645A or a combination of TRPC1-P645A and FKBP52-WT, were added to the cell suspension and then transferred to cuvettes for electroporation. The cells were cultured in DMEM with 10% fetal bovine serum for 24 hrs before changing to serum-free neurobasal medium (Song et al., Nature 417:39-44, 2002). Growth cone turning assay. Microscopic gradients of netrin-1 (5 μg/ml in the pipette), MAG (150 μg/ml in the pipette) and GPI-1046 (100 μM in the pipette) were produced as previously described (Lohof et al., J Neurosci 12:1253-61, 1992; and Zheng et al., Nature 368:140-4, 1994). […] The rates of neurite extension were calculated based on the net neurite extension during the turning assay. […] Statistical significance was assessed using the Kolmogorov-Smirnov test.

[7] = tested on: growth cones of Xenopus spinal neurons; assay: Growth cone turning assay in a netrin-1 gradient; format: cell-based; details: for growth cone turning response in a GPI-1046 gradient: GPI-1046 100 μM in the pipette
Experimental: Growth cone turning assay. Microscopic gradients of netrin-1 (5 μg/ml in the pipette), MAG (150 μg/ml in the pipette) and GPI-1046 (100 μM in the pipette) were produced as previously described (Lohof et al., J Neurosci 12:1253-61, 1992; and Zheng et al., Nature 368:140-4, 1994). […] Xenopus spinal neurons were used 14 to 20 hrs after plating and neurons with the lineage-tracer were identified under fluorescent microscope and used for turning assay at room temperature as previously described (Ming et al., Nature 417:411-8, 2002; Ming et al., Neuron 19:1225-35, 1997; Lohof et al., J Neurosci 12:1253-61, 1992; and Zheng et al., Nature 368:140-4, 1994). GFP^+ hippocampal neurons were used 48-72 hours after plating and individual axon was identified for turning assay at the room temperature. The turning angle was defined by the angle between the original direction of neurite extension and a straight line connecting the positions of the center of the growth cone at the onset and the end of the 30 min period. The rates of neurite extension were calculated based on the net neurite extension during the turning assay. Only those growth cones of isolated neurons with a net neurite extension >5 μm over the 30-min period were included for analysis. Statistical significance was assessed using the Kolmogorov-Smirnov test.

Compound | TRPC1 binding to GST-Homer [1] | netrin-1-induced Ca2+ rise in growth cones ([2]; Xenopus spinal neurons, Fluo-4, netrin-1 5 ng/ml, GPI-1046 100 nM in bath) | inhibition of calcineurin [3] | inhibition of FKBP isomerase activity [4] | commissural interneuron axon midline guidance ([5]; 0.5 μM applied to Xenopus embryos between stage 22-25) | MAG-induced growth cone repulsion [6] | growth cone turning response in a GPI-1046 gradient ([7]; uniform netrin-1 10 ng/ml in the bath) | growth cone turning response in a GPI-1046 gradient ([7]; without uniform netrin-1 stimulation) | growth cone turning response in a netrin-1 gradient ([7]; netrin-1 5 μg/ml in the pipette, bath application of 100 nM, 30 min) | netrin-1-induced Ca2+ rise in growth cones ([2]; neurons from embryos injected with morpholino (10 ng/embryo)) | commissural interneuron axon midline guidance ([5]; morpholino injected at the one-cell stage, stage 25 embryos)
CCC(C)(C)C(=O)C(=O)N1CCC[C@H]1C(=O)OCCCc1cccnc1 [GPI-1046, 3-(3-pyridyl)-1-propyl (2S)-1-(3,3-dimethyl-1,2-dioxopentyl)-2-pyrrolidinecarboxylate] | increased TRPC1 binding to GST-Homer | abolished netrin-1-induced Ca^2+ rise | does not inhibit calcineurin | inhibits their isomerase activity | significant guidance defects | abolished MAG-induced repulsion | significant repulsive turning responses | no bias in the direction of growth cone extension | blocked netrin-1-induced attraction | – | –
XDCC-MO: morpholino oligo directed against Xenopus DCC, 5′ CCAAGACAATTCTCCATATTTCAGC 3′ (all phosphorodiamidate morpholino (PMO)) | – | – | – | – | – | – | – | – | – | abolished netrin-1-induced Ca^2+ rise | failed to reach the midline
